Source: patent US8445246B2, “Flavin-binding glucose dehydrogenases” (Kikkoman Corporation, priority 2009, dated 2013)

Tests used:
[1] = test system: flavin-binding GDH of the invention; test: Inhibiting effect of 1,10-phenanthroline; type: biochemical
Text: (§1) The inhibiting effect of […] on the activity of the flavin-binding GDH of the invention was examined in the following manner.

[2] = test system: McGDH; test: Inhibiting effect of 1,10-phenanthroline on McGDH; type: biochemical, Mucor circinelloides f. circinelloides NISL0117
Text: as §1

[3] = test system: MjGDH; test: Inhibiting effect of 1,10-phenanthroline on MjGDH; type: biochemical, Mucor javanicus NISL0111
Text: as §1

[4] = test system: MpGDH; test: Inhibiting effect of 1,10-phenanthroline on MpGDH; type: biochemical, Mucor prainii NISL0103
Text: as §1

## c1cnc2c(c1)ccc1cccnc12 [1,10-phenanthroline]
[1]; 1 mM 1,10-phenanthroline
  inhibiting effect: 2-4%
[1]; 5 mM 1,10-phenanthroline
  inhibition rate: about 10%
[2]; 1,10-phenanthroline 1 mM
  GDH inhibition rate (%): 1.95%
[2]; 1,10-phenanthroline 5 mM
  GDH inhibition rate (%): 8.23%
[2]; 1,10-phenanthroline 10 mM
  GDH inhibition rate (%): 12.8%
[2]; 1,10-phenanthroline 25 mM
  GDH inhibition rate (%): 36.2%
[2]; 1,10-phenanthroline 50 mM
  GDH inhibition rate (%): 68.5%
[3]; 1,10-phenanthroline 1 mM
  GDH inhibition rate (%): 3.27%
[3]; 1,10-phenanthroline 5 mM
  GDH inhibition rate (%): 13.1%
[3]; 1,10-phenanthroline 10 mM
  GDH inhibition rate (%): 23.5%
[3]; 1,10-phenanthroline 25 mM
  GDH inhibition rate (%): 64.7%
[3]; 1,10-phenanthroline 50 mM
  GDH inhibition rate (%): 88.9%
[4]; 1,10-phenanthroline 1 mM
  GDH inhibition rate (%): 3.72%
[4]; 1,10-phenanthroline 5 mM
  GDH inhibition rate (%): 10.1%
[4]; 1,10-phenanthroline 10 mM
  GDH inhibition rate (%): 23.9%
[4]; 1,10-phenanthroline 25 mM
  GDH inhibition rate (%): 44.1%
[4]; 1,10-phenanthroline 50 mM
  GDH inhibition rate (%): 68.6%
